According to patent US20100209406A1, “BACILLUS STRAINS AND METHODS FOR REDUCING E. COLI DISEASE AND ENHANCING PERFORMANCE” (priority 2004, published 2010):
Residues, ends and D or L forms follow the SMILES beside them.

Key:
Test in all cases: Antibiotic sensitivity assay (antibiotic discs)
Type in all cases: cell-based, Bacillus subtilis
Bacillus strain 3A-P4 = settings: antibiotic disc on TSA with 1.0% 3A-P4, 32° C. overnight
Experimental: (§1) After the plates were solidified, the antibiotic discs were placed onto the agar surface. The plates were incubated at 32° C. overnight. Inhibitory zones were measured in millimeters.

Bacillus strain 15A-P4 = settings: antibiotic disc on TSA with 1.0% 15A-P4, 32° C. overnight
Experimental: as §1

Bacillus strain 22C-P1 = settings: antibiotic disc on TSA with 1.0% 22C-P1, 32° C. overnight
Experimental: as §1

Molecule: Penicillin
- Inhibitory Zones (Bacillus strain 3A-P4): 0 Millimeters
- Inhibitory Zones (Bacillus strain 15A-P4): 11 Millimeters
- Inhibitory Zones (Bacillus strain 22C-P1): 13 Millimeters

Molecule: Gentamycin
- Inhibitory Zones (Bacillus strain 3A-P4): 26 Millimeters
- Inhibitory Zones (Bacillus strain 15A-P4): 22 Millimeters
- Inhibitory Zones (Bacillus strain 22C-P1): 22 Millimeters

Molecule: CN(C)[C@@H]1C(=O)C(C(N)=O)=C(O)[C@@]2(O)C(=O)C3=C(O)c4c(O)cccc4[C@@](C)(O)[C@H]3[C@H](O)[C@@H]12 [Oxytetracycxyline]
- Inhibitory Zones (Bacillus strain 3A-P4): 24 Millimeters
- Inhibitory Zones (Bacillus strain 15A-P4): 14 Millimeters
- Inhibitory Zones (Bacillus strain 22C-P1): 24 Millimeters

Molecule: CCC[C@@H]1C[C@@H](C(=O)N[C@@H]([C@H]2O[C@H](SC)[C@H](O)[C@@H](O)[C@H]2O)[C@@H](C)O)N(C)C1 [Lincomycin]
- Inhibitory Zones (Bacillus strain 3A-P4): 8 Millimeters
- Inhibitory Zones (Bacillus strain 15A-P4): 9 Millimeters
- Inhibitory Zones (Bacillus strain 22C-P1): 8 Millimeters

Molecule: CC[C@H](C)[C@H](N)C1=N[C@H](C(=O)N[C@@H](CC(C)C)C(=O)N[C@H](CCC(=O)O)C(=O)N[C@H](C(=O)N[C@H]2CCCCNC(=O)[C@H](CC(N)=O)NC(=O)[C@@H](CC(=O)O)NC(=O)[C@H](Cc3cnc[nH]3)NC(=O)[C@@H](Cc3ccccc3)NC(=O)[C@H]([C@@H](C)CC)NC(=O)[C@@H](CCCN)NC2=O)[C@@H](C)CC)CS1 [Bacitracin] (HELM PEPTIDE1{[CC[C@H](C)[C@H](N)C1=N[C@H](C(=O)[*:2])CS1].L.[dE].I.K.[NCCC[C@@H](N[*:1])C(=O)[*:2]].I.[dF].H.[dD].N}$PEPTIDE1,PEPTIDE1,5:R3-11:R2$$$V2.0)
- Inhibitory Zones (Bacillus strain 3A-P4): 8 Millimeters
- Inhibitory Zones (Bacillus strain 15A-P4): 8 Millimeters
- Inhibitory Zones (Bacillus strain 22C-P1): 8 Millimeters

Molecule: CN(C)[C@@H]1C(O)=C(C(N)=O)C(=O)[C@@]2(O)C(O)=C3C(=O)c4c(O)cccc4[C@@](C)(O)[C@H]3C[C@@H]12 [Tetracycline]
- Inhibitory Zones (Bacillus strain 3A-P4): 26 Millimeters
- Inhibitory Zones (Bacillus strain 15A-P4): 14 Millimeters
- Inhibitory Zones (Bacillus strain 22C-P1): 21 Millimeters

Molecule: Neomycin
- Inhibitory Zones (Bacillus strain 3A-P4): 16 Millimeters
- Inhibitory Zones (Bacillus strain 15A-P4): 12 Millimeters
- Inhibitory Zones (Bacillus strain 22C-P1): 12 Millimeters
